This is an account of results in patent publication US10844044B2 (Vanderbilt University, priority 2018, dated 2020).

The assay addresses WDR5 (Homo sapiens (Human), UniProt P61964). The assay can be described thus: TR-FRET binding assay (displacement of 10mer-Thr-FAM probe from WDR5). To be noted: read-out: Ki for Inhibition of WDR5 by TR-FRET assay. On the technique in general: Time-resolved FRET reads energy transfer from a long-lived donor to a nearby acceptor.
Setting [1] is: TR-FRET, 10mer-Thr-FAM probe, WDR5-His tag 2 nM, pH 7.0.

pKi: −log10 of the molar value. Read-outs that look alike come from different tables or passages of the source. Where only a bound is given, the exact number is not on record here.

What is called pKi is the Ki on a negative log10 scale, so that one unit is a factor of ten. Regarding `Cc1cc([C@@H](NC(=O)c2cc(Cn3ccn(C)c3=N)cc(-n3ccnc3C)c2)C2CC2)ccc1F` [Example 224, (S)—N-(Cyclopropyl(4-fluoro-3-methylphenyl)methyl)-3-((2-imino-3-methyl-2,3-dihydro-H-imidazol-1-yl)methyl)-5-(2-methyl-1H-imidazol-1-yl)benzamide], the negative logarithm of the Ki (pKi) under setting [1] is 9.85.
Take `CCn1cc(-c2cc(Cn3ccn(C)c3=N)cc(C(=O)N[C@H](c3ccc(F)c(C)c3)C3CC3)c2)c(C)n1` [Example 225, (S)—N-(Cyclopropyl(4-fluoro-3-methylphenyl)methyl)-3-(1-ethyl-3-methyl-1H-pyrazol-4-yl)-5-((2-imino-3-methyl-2,3-dihydro-1H-imidazol-1-yl)methyl)benzamide]: the negative logarithm of the Ki (pKi) under setting [1] was over 10.00.
Same read-out and setting: the same measure for `Cc1cc([C@@H](NC(=O)c2cc(Cn3ccn(C)c3=N)cc(N3CCC[C@H]3C)c2)C2CC2)ccc1F` [Example 226, N—((S)-Cyclopropyl(4-fluoro-3-methylphenyl)methyl)-3-((2-imino-3-methyl-2,3-dihydro-1H-imidazol-1-yl)methyl)-5-((R)-2-methylpyrrolidin-1-yl)benzamide]: 8.15.
Still for that read-out and setting: the same measure for `Cc1ccnc(C(NC(=O)c2cc(Cn3ccoc3=N)cc(-c3ncccc3C(F)(F)F)c2)C2CC2)c1` (centres unmarked) [Example 237, N-(Cyclopropyl(4-methylpyridin-2-yl)methyl)-3-((2-iminooxazol-3(2H)-yl)methyl)-5-(3-(trifluoromethyl)pyridin-2-yl)benzamide]: 8.12.
Consider `Cc1cc([C@@H](NC(=O)c2cc(Cn3c(C)coc3=N)cc(-c3cccnc3C(F)(F)F)c2)C2CC2)ccc1F` [Example 252, (S)—N-(Cyclopropyl(4-fluoro-3-methylphenyl)methyl)-3-((2-imino-4-methyloxazol-3(2H)-yl)methyl)-5-(2-(trifluoromethyl)pyridin-3-yl)benzamide], for which the negative logarithm of the Ki (pKi) is 7.68.
Consider `Cc1cc([C@@H](NC(=O)c2cc(Cn3ccoc3=N)cc(-c3cncnc3C(F)(F)F)c2)C2CC2)ccc1F` [Example 255, (S)—N-(Cyclopropyl(4-fluoro-3-methylphenyl)methyl)-3-((2-iminooxazol-3(2H)-yl)methyl)-5-(4-(trifluoromethyl)pyrimidin-5-yl)benzamide], for which the pKi under setting [1] is 9.21.
The same measure, in the same setting: the same measure for `CCc1coc(=N)n1Cc1cc(C(=O)N[C@H](c2ccc(F)c(C)c2)C2CC2)cc(-c2cccnc2C(F)(F)F)c1` [Example 256, (S)—N-(Cyclopropyl(4-fluoro-3-methylphenyl)methyl)-3-((4-ethyl-2-iminooxazol-3(2H)-yl)methyl)-5-(2-(trifluoromethyl)pyridin-3-yl)benzamide]: 8.57.
Turning to `C[C@H](NC(=O)c1cc(Cn2ccoc2=N)cc(-c2cccnc2C(F)(F)F)c1)c1ccc(F)c(Cl)c1` [Example 257, (S)—N-(1-(3-Chloro-4-fluorophenyl)ethyl)-3-((2-iminooxazol-3(2H)-yl)methyl)-5-(2-(trifluoromethyl)pyridin-3-yl)benzamide], the pKi is 8.70.
Same read-out and setting: the same measure for `C[C@H](NC(=O)c1cc(Cn2ccoc2=N)cc(-c2cccnc2C(F)(F)F)c1)c1ccc(C(F)(F)F)cc1` [Example 258]: 8.24.
As for `C[C@H](NC(=O)c1cc(Cn2ccoc2=N)cc(-c2cccnc2C(F)(F)F)c1)c1ncc(F)cn1` [Example 262, (S)—N-(1-(5-Fluoropyrimidin-2-yl)ethyl)-3-((2-iminooxazol-3(2H)-yl)methyl)-5-(2-(trifluoromethyl)pyridin-3-yl)benzamide], under setting [1], the pKi is under 7.48.
Consider `Cc1cc([C@@H](NC(=O)c2cc(Cn3ccoc3=N)cc(C3CC3)c2)C2CC2)ccc1F` [Example 265, (S)-3-cyclopropyl-N-(cyclopropyl(4-fluoro-3-methylphenyl)methyl)-5-((2-iminooxazol-3(2H)-yl)methyl)benzamide], for which the pKi under setting [1] is 9.11.
Turning to `Cc1cc([C@@H](NC(=O)c2cc(CN3CCCOC3=N)cc(-c3cccnc3C(F)(F)F)c2)C2CC2)ccc1F` [Example 266, (S)—N-(Cyclopropyl(4-fluoro-3-methylphenyl)methyl)-3-((2-imino-1,3-oxazinan-3-yl)methyl)-5-(2-(trifluoromethyl)pyridin-3-yl)benzamide], under setting [1], the pKi is 7.80.
Still for that read-out and setting: the same measure for `N=c1occn1Cc1cc(C(=O)N[C@H](c2ccc(Cl)c(Cl)c2)C2CC2)cc(-c2ccc(F)cc2OC(F)F)c1` [Example 270, (S)—N-(Cyclopropyl(3,4-dichlorophenyl)ethyl)-2′-(difluoromethoxy)-4′-fluoro-5-((2-iminooxazol-3(2)-yl)methyl)-[1,1′-biphenyl]-3-carboxamide]: 9.74.
For the compound `N=c1occn1Cc1cc(C(=O)N[C@H](c2ccc(Cl)c(Cl)c2)C2CC2)cc(-c2cccnc2C(F)(F)F)c1` [Example 271, (S)—N-(Cyclopropyl(3,4-dichlorophenyl)methyl)-3-((2-iminooxazol-3(2H)-yl)methyl)-5-(2-(trifluoromethyl)pyridin-3-yl)benzamide], under setting [1], the pKi is 9.14.
Regarding `Cc1cc(F)ccc1-c1cc(Cn2ccoc2=N)cc(C(=O)NCc2ccc(Cl)c(Cl)c2)n1` [Example 277, N-(3,4-Dichlorobenzyl)-6-(4-fluoro-2-methylphenyl)-4-((2-iminooxazol-3(2H)-yl)methyl)picolinamide], the pKi under setting [1] was under 7.48.
As to `Cc1cc([C@@H](NC(=O)c2cc(CN3CCOC3=N)cc(-c3cn(CC(C)C)nc3C(F)(F)F)c2)C2CC2)ccc1F` [Example 278, (S)—N-(Cyclopropyl(4-fluoro-3-methylphenyl)methyl)-3-((2-iminooxazolidin-3-yl)methyl)-5-(1-isobutyl-3-(trifluoromethyl)-1H-pyrazol-4-yl)benzamide], under setting [1], the pKi is 9.47.
`CCn1cc(-c2cc(CN3CCOC3=N)cc(C(=O)NCC3CCOCC3)c2)c(C(F)(F)F)n1` [Example 288, 3-(1-Ethyl-3-(trifluoromethyl)-1H-pyrazol-4-yl)-5-((2-iminooxazolidin-3-yl)methyl)-N-((tetrahydro-2H-pyran-4-yl)methyl)benzamide]: the pKi is 8.06.
Turning to `CCn1cc(-c2cc(CN3CCOC3=N)cc(C(=O)NCC3CCCO3)c2)c(C(F)(F)F)n1` (centres unmarked) [Example 289, 3-(1-Ethyl-3-(trifluoromethyl)-1H-pyrazol-4-yl)-5-((2-iminooxazolidin-3-yl)methyl)-N-((tetrahydrofuran-2-yl)methyl)benzamide], the pKi under setting [1] is 7.51.
The same measure, in the same setting: the same measure for `CCn1cc(-c2cc(CN3CCOC3=N)cc(C(=O)NCC3CCOC3)c2)c(C(F)(F)F)n1` (centres unmarked) [Example 290, 3-(1-Ethyl-3-(trifluoromethyl)-1H-pyrazol-4-yl)-5-((2-iminooxazolidin-3-yl)methyl)-N-((tetrahydrofuran-3-yl)methyl)benzamide]: 7.70.
For `Cc1cc([C@@H](NC(=O)c2cc(CN3C[C@H](C)OC3=N)cc(-c3cccnc3C(F)(F)F)c2)C2CC2)ccc1F` [Example 296, N—((S)-cyclopropyl(4-fluoro-3-methylphenyl)methyl)-3-(((S)-2-imino-5-methyloxazolidin-3-yl)methyl)-5-(2-(trifluoromethyl)pyridin-3-yl)benzamide], the negative-log Ki (pKi) is 8.15.
With `Cc1cc([C@@H](NC(=O)c2cc(CN3C[C@@H](C)OC3=N)cc(-c3cccnc3C(F)(F)F)c2)C2CC2)ccc1F` [Example 297, N—((S)-cyclopropyl(4-fluoro-3-methylphenyl)methyl)-3-(((R)-2-imino-5-methyloxazolidin-3-yl)methyl)-5-(2-(trifluoromethyl)pyridin-3-yl)benzamide], the pKi under setting [1] was 8.64.
Same read-out and setting: the same measure for `CCOc1c(C(=O)N[C@H](c2ccc(F)c(C)c2)C2CC2)cc(Cn2ccoc2=N)cc1-c1cn(C)nc1C(F)(F)F` [Example 304]: over 10.00; for `N=C1SCCN1Cc1cc(C(=O)N[C@H](c2ccc(Cl)c(Cl)c2)C2CC2)cc(-c2cccnc2C(F)(F)F)c1` [Example 311, (S)—N-(Cyclopropyl(3,4-dichlorophenyl)methyl)-3-((2-iminothiazolidin-3-yl)methyl)-5-(2-(trifluoromethyl)pyridin-3-yl)benzamide]: 8.83.
For `Cc1cc([C@@H](NC(=O)c2cc(CN3CCSC3=N)cc(-c3cn(CC(C)C)nc3C(F)(F)F)c2)C2CC2)ccc1F` [Example 313, (S)—N-(Cyclopropyl(4-fluoro-3-methylphenyl)methyl)-3-((2-iminothiazolidin-3-yl)methyl)-5-(1-isobutyl-3-(trifluoromethyl)-1H-pyrazol-4-yl)benzamide], under setting [1], the pKi is 8.92.
Still for that read-out and setting: the same measure for `Cc1cc([C@@H](NC(=O)c2cc(CN3CCSC3=N)cc(-c3cn(C4CCCC4)nc3C(F)(F)F)c2)C2CC2)ccc1F` [Example 314, (S)-3-(1-Cyclopentyl-3-(trifluoromethyl)-1H-pyrazol-4-yl)-N-(cyclopropyl(4-fluoro-3-methylphenyl)methyl)-5-((2-iminothiazolidin-3-yl)methyl)benzamide]: 8.40; for `Cc1cc([C@@H](NC(=O)c2cc(CN3CCCSC3=N)cc(-c3cccnc3C(F)(F)F)c2)C2CC2)ccc1F` [Example 315, (S)—N-(Cyclopropyl(4-fluoro-3-methylphenyl)methyl)-3-((2-imino-1,3-thiazinan-3-yl)methyl)-5-(2-(trifluoromethyl)pyridin-3-yl)benzamide]: 9.00.
As to `Cc1cc([C@@H](NC(=O)c2cc(CN3CCSC3=N)cc(-c3ccc(F)cc3C#N)c2)C2CC2)ccc1F` [Example 316], the negative logarithm of the Ki (pKi) is 9.04.
For `N=C1SCCN1Cc1cc(C(=O)N[C@H](c2ccc(Cl)c(Cl)c2)C2CC2)cc(-c2ncc(F)cc2C(F)(F)F)c1` [Example 317, (S)—N-(Cyclopropyl(3,4-dichlorophenyl)methyl)-3-(5-fluoro-3-(trifluoromethyl)pyridin-2-yl)-5-((2-iminothiazolidin-3-yl)methyl)benzamide], the pKi was 9.55.
Same read-out and setting: the same measure for `N=C1SCCN1Cc1cc(C(=O)N[C@H](c2ccc(F)c(F)c2)C2CC2)cc(-c2cccnc2C(F)(F)F)c1` [Example 318, (S)—N-(Cyclopropyl(3,4-difluorophenyl)methyl)-3-((2-iminothiazolidin-3-yl)methyl)-5-(2-(trifluoromethyl)pyridin-3-yl)benzamide]: 9.54.
